# Source: ChEMBL document CHEMBL3885881, “DrugMatrix”
# Species on record: Rattus norvegicus
# Assay: DrugMatrix - Regimen: Daily Repeat
# Format: toxicity, organism-based, Sprague-Dawley
# Set-up: regimen Daily Repeat, gender Male, age 6-8 weeks
# Settings: in vivo, po, route oral GAVAGE, […]; for ABSOLUTE BASOPHIL / ABSOLUTE EOSINOPHIL / ABSOLUTE LYMPHOCYTE / ABSOLUTE MONOCYTE / ABSOLUTE SEGMENTED NEUTROPHIL / BASOPHIL / EOSINOPHIL / ERYTHROCYTE COUNT / HEMATOCRIT / HEMOGLOBIN / LEUKOCYTE COUNT / LYMPHOCYTE / MEAN CORPUSCULAR HEMOGLOBIN / MEAN CORPUSCULAR HEMOGLOBIN CONCENTRATION / MEAN CORPUSCULAR VOLUME / MONOCYTE / NEUTROPHIL / NUCLEATED RED BLOOD CELLS / PLATELET COUNT: tissue Blood; for ALANINE AMINOTRANSFERASE / ALBUMIN / ALKALINE PHOSPHATASE / ASPARTATE AMINOTRANSFERASE / BLOOD UREA NITROGEN / CARBON DIOXIDE / CHLORIDE / CHOLESTEROL / CREATINE PHOSPHOKINASE / CREATININE / GLUCOSE / LACTATE DEHYDROGENASE / LIPASE / PHOSPHORUS / POTASSIUM / SODIUM / TOTAL BILIRUBIN / TOTAL PROTEIN / URIC ACID: tissue Plasma
# [1] = 50 mg/kg, 120 h, dose level Low, time 5 day
# [2] = 714 mg/kg, 72 h, dose level High, time 3 day
# [3] = 714 mg/kg, 120 h, dose level High, time 5 day
structure (smiles),measurement,setting,value
COC(=O)Nc1nc2ccc(C(=O)c3ccccc3)cc2[nH]1 [MEBENDAZOLE],ABSOLUTE BASOPHIL,[1],0 CELLS/uL
same,ABSOLUTE EOSINOPHIL,[1],0 CELLS/uL
same,ABSOLUTE LYMPHOCYTE,[1],6435.67 CELLS/uL
same,ABSOLUTE MONOCYTE,[1],130 CELLS/uL
same,ABSOLUTE SEGMENTED NEUTROPHIL,[1],501 CELLS/uL
same,BASOPHIL,[1],0%
same,EOSINOPHIL,[1],0%
same,ERYTHROCYTE COUNT,[1],5.5 x10E6/uL
same,HEMATOCRIT,[1],34.07%
same,HEMOGLOBIN,[1],13.2 G/DL
same,LEUKOCYTE COUNT,[1],7.07 x10E3/uL
same,LYMPHOCYTE,[1],91.33%
same,MEAN CORPUSCULAR HEMOGLOBIN,[1],23.93 pg
same,MEAN CORPUSCULAR HEMOGLOBIN CONCENTRATION,[1],38.77 G/DL
same,MEAN CORPUSCULAR VOLUME,[1],61.9 fL
same,MONOCYTE,[1],1.67%
same,NEUTROPHIL,[1],7%
same,NUCLEATED RED BLOOD CELLS,[1],0 /100WBC
same,PLATELET COUNT,[1],727.67 x10E3/uL
same,ALANINE AMINOTRANSFERASE,[1],57.67 u/L
same,ALBUMIN,[1],4.23 G/DL
same,ALKALINE PHOSPHATASE,[1],399 u/L
same,ASPARTATE AMINOTRANSFERASE,[1],84.33 u/L
same,BLOOD UREA NITROGEN,[1],13 mg/dL
same,CARBON DIOXIDE,[1],30.67 mmol/L
same,CHLORIDE,[1],101.67 MEQ/L
same,CHOLESTEROL,[1],64.67 mg/dL
same,CREATINE PHOSPHOKINASE,[1],244 u/L
same,CREATININE,[1],0.17 mg/dL
same,GLUCOSE,[1],149 mg/dL
same,LACTATE DEHYDROGENASE,[1],129.33 u/L
same,LIPASE,[1],9.33 u/L
same,PHOSPHORUS,[1],9.77 mg/dL
same,POTASSIUM,[1],5.24 MEQ/L
same,SODIUM,[1],144.5 MEQ/L
same,TOTAL BILIRUBIN,[1],0.17 mg/dL
same,TOTAL PROTEIN,[1],6.13 G/DL
same,URIC ACID,[1],0.83 mg/dL
same,ABSOLUTE BASOPHIL,[2],0 CELLS/uL
same,ABSOLUTE EOSINOPHIL,[2],0 CELLS/uL
same,ABSOLUTE LYMPHOCYTE,[2],11722 CELLS/uL
same,ABSOLUTE MONOCYTE,[2],64.67 CELLS/uL
same,ABSOLUTE SEGMENTED NEUTROPHIL,[2],713.33 CELLS/uL
same,BASOPHIL,[2],0%
same,EOSINOPHIL,[2],0%
same,ERYTHROCYTE COUNT,[2],5.73 x10E6/uL
same,HEMATOCRIT,[2],36.47%
same,HEMOGLOBIN,[2],14.03 G/DL
same,LEUKOCYTE COUNT,[2],12.5 x10E3/uL
same,LYMPHOCYTE,[2],93%
same,MEAN CORPUSCULAR HEMOGLOBIN,[2],24.53 pg
same,MEAN CORPUSCULAR HEMOGLOBIN CONCENTRATION,[2],38.5 G/DL
same,MEAN CORPUSCULAR VOLUME,[2],63.63 fL
same,MONOCYTE,[2],0.67%
same,NEUTROPHIL,[2],6.33%
same,NUCLEATED RED BLOOD CELLS,[2],0 /100WBC
same,PLATELET COUNT,[2],1226.67 x10E3/uL
same,ALANINE AMINOTRANSFERASE,[2],73 u/L
same,ALBUMIN,[2],4.17 G/DL
same,ALKALINE PHOSPHATASE,[2],458.33 u/L
same,ASPARTATE AMINOTRANSFERASE,[2],86.67 u/L
same,BLOOD UREA NITROGEN,[2],12.33 mg/dL
same,CARBON DIOXIDE,[2],34.33 mmol/L
same,CHLORIDE,[2],99 MEQ/L
same,CHOLESTEROL,[2],68 mg/dL
same,CREATINE PHOSPHOKINASE,[2],464 u/L
same,CREATININE,[2],0.15 mg/dL
same,GLUCOSE,[2],137.67 mg/dL
same,LACTATE DEHYDROGENASE,[2],159.67 u/L
same,LIPASE,[2],10 u/L
same,PHOSPHORUS,[2],11.13 mg/dL
same,POTASSIUM,[2],6.13 MEQ/L
same,SODIUM,[2],144.4 MEQ/L
same,TOTAL BILIRUBIN,[2],0.2 mg/dL
same,TOTAL PROTEIN,[2],6.07 G/DL
same,URIC ACID,[2],0.6 mg/dL
same,ABSOLUTE BASOPHIL,[3],0 CELLS/uL
same,ABSOLUTE EOSINOPHIL,[3],0 CELLS/uL
same,ABSOLUTE LYMPHOCYTE,[3],8770.67 CELLS/uL
same,ABSOLUTE MONOCYTE,[3],141.33 CELLS/uL
same,ABSOLUTE SEGMENTED NEUTROPHIL,[3],488 CELLS/uL
same,BASOPHIL,[3],0%
same,EOSINOPHIL,[3],0%
same,ERYTHROCYTE COUNT,[3],5.57 x10E6/uL
same,HEMATOCRIT,[3],35.9%
same,HEMOGLOBIN,[3],13.67 G/DL
same,LEUKOCYTE COUNT,[3],9.4 x10E3/uL
same,LYMPHOCYTE,[3],93%
same,MEAN CORPUSCULAR HEMOGLOBIN,[3],24.57 pg
same,MEAN CORPUSCULAR HEMOGLOBIN CONCENTRATION,[3],38.1 G/DL
same,MEAN CORPUSCULAR VOLUME,[3],64.5 fL
same,MONOCYTE,[3],1.67%
same,NEUTROPHIL,[3],5.33%
same,NUCLEATED RED BLOOD CELLS,[3],0.33 /100WBC
same,PLATELET COUNT,[3],1199 x10E3/uL
same,ALANINE AMINOTRANSFERASE,[3],60.67 u/L
same,ALBUMIN,[3],4.1 G/DL
same,ALKALINE PHOSPHATASE,[3],481.33 u/L
same,ASPARTATE AMINOTRANSFERASE,[3],90.67 u/L
same,BLOOD UREA NITROGEN,[3],14 mg/dL
same,CARBON DIOXIDE,[3],32.67 mmol/L
same,CHLORIDE,[3],99.67 MEQ/L
same,CHOLESTEROL,[3],65 mg/dL
same,CREATINE PHOSPHOKINASE,[3],401 u/L
same,CREATININE,[3],0.21 mg/dL
same,GLUCOSE,[3],145.33 mg/dL
same,LACTATE DEHYDROGENASE,[3],142.67 u/L
same,LIPASE,[3],11.67 u/L
same,PHOSPHORUS,[3],10.2 mg/dL
same,POTASSIUM,[3],5.58 MEQ/L
same,SODIUM,[3],146.1 MEQ/L
same,TOTAL BILIRUBIN,[3],0.2 mg/dL
same,TOTAL PROTEIN,[3],5.97 G/DL
same,URIC ACID,[3],0.5 mg/dL
